Test results taken from patent publication US8673841B2 (Ferring B.V., priority 2008, dated 2014).
Starred links: 1 amine or outer side, 2 acyl side, 3 side chain; linkers in the order of their positions; H or OH if unused. Positions of bridges follow the written chain, without caps; N, C: chain ends. Non-standard residues stand in square brackets, D forms with d. Residues, ends and D or L forms follow the SMILES beside them. N(3-phenylpropyl)Gly = O=C(O)CNCCCc1ccccc1; Phe(4-Et) = CCc1ccc(C[C@H](N)C(=O)O)cc1; X1 = O=C(CN(Cc1ccc(F)c(F)c1)[*:1])[*:2]; X4 = Cc1ccc(CCN(CC(=O)[*:2])[*:1])cc1; cisHyp = O=C(O)[C@@H]1C[C@H](O)CN1; X2 = O=C(CCC[*:2])[*:1]; Mpa = O=C(O)CCS

Columns and labels:
[1] = target: human vasopressin (hV2) receptor (Homo sapiens, UniProt P30518); assay: luciferase-based transcriptional reporter gene assay expressing the human vasopressin (hV2) receptor; conditions: for Selectivity hV2/hOT: EC50 ratio hV2/hOT
human vasopressin (hV2) receptor, sequence (P30518 whole entry): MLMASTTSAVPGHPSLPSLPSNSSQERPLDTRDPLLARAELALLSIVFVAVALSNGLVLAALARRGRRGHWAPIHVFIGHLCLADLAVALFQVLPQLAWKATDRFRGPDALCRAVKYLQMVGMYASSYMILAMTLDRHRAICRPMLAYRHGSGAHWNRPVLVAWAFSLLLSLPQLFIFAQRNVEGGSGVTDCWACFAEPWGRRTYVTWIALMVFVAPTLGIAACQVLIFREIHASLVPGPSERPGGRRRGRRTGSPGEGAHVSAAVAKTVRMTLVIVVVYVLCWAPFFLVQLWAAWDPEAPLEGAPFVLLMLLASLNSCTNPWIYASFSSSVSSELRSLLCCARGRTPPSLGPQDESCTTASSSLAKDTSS
Protocol: (§1) Agonist activity of compounds on the hOT receptor was determined in a transcriptional reporter gene assay by transiently transfecting a hOT receptor expression DNA into a Chinese Hamster Ovary (CHO) cell line in concert with a reporter DNA containing intracellular calcium responsive promoter elements regulating expression of firefly luciferase.
(§2) The EC50 value given is the geometric mean expressed in nanomol/l (nM). Selectivity values are given as EC50 ratios.

hOT receptor = target: T1, hOT receptor (Homo sapiens, UniProt P30559); assay: transcriptional reporter gene assay (luciferase), agonist activity on hOT receptor in transfected CHO cells
T1 sequence (P30559 1-389): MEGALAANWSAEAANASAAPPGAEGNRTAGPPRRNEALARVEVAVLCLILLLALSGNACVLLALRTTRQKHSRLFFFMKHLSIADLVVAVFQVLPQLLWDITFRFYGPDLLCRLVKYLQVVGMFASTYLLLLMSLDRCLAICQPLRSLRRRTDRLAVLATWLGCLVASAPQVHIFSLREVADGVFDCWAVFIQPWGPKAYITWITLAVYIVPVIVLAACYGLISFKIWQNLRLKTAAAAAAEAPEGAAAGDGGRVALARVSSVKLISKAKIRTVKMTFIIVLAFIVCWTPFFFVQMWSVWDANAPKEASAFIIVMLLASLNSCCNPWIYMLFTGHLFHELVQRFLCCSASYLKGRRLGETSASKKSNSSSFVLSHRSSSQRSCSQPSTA
Protocol: as §1, §2

| Structure (SMILES) | EC50 [1] [nM] | Selectivity hV2/hOT [1] | EC50 (hOT receptor) [nM] |
| --- | --- | --- | --- |
| CCc1ccc(C[C@@H]2NC(=O)CCCSC[C@@H](C(=O)N3C[C@@H](O)C[C@H]3C(=O)N[C@@H](CC(C)C)C(=O)NCC(N)=O)NC(=O)[C@H](CC(N)=O)NC(=O)[C@H](CCC(N)=O)NC(=O)[C@H]([C@@H](C)CC)NC2=O)cc1 [Compound 6] ([Phe(4-Et)]IQNC[cisHyp]LG-NH2; linker N-5 via X2) | 39.9 | 629 | 0.064 |
| CC[C@H](C)[C@@H]1NC(=O)[C@H](Cc2ccc(O)cc2)NC(=O)CCSSC[C@@H](C(=O)N(CCCc2ccccc2)CC(=O)N[C@@H](CC(C)C)C(=O)NCC(N)=O)NC(=O)[C@H](CC(N)=O)NC(=O)[C@H](CCC(N)=O)NC1=O [Compound 25] ([Mpa]YIQNC[N(3-phenylpropyl)Gly]LG-NH2; disulfide 1-6) | 159 | 2736 | 0.058 |
| CC[C@H](C)[C@@H]1NC(=O)[C@H](Cc2ccc(O)cc2)NC(=O)CCSSC[C@@H](C(=O)N(CC(=O)N[C@@H](CC(C)C)C(=O)NCC(N)=O)Cc2ccc(F)c(F)c2)NC(=O)[C@H](CC(N)=O)NC(=O)[C@H](CCC(N)=O)NC1=O [Compound 11] ([Mpa]YIQNC[X1]LG-NH2; disulfide 1-6) | 58.5 | 2217 | 0.026 |
| CC[C@H](C)[C@@H]1NC(=O)[C@H](Cc2ccc(O)cc2)NC(=O)CCSSC[C@@H](C(=O)N(CCc2ccc(C)cc2)CC(=O)N[C@@H](CC(C)C)C(=O)NCC(N)=O)NC(=O)[C@H](CC(N)=O)NC(=O)[C@H](CCC(N)=O)NC1=O [Compound 15] ([Mpa]YIQNC[X4]LG-NH2; disulfide 1-6) | 102 | 2533 | 0.04 |
